Measurements: PubChem BioAssay (NCI)
In brackets after ≈: the same amount, converted by molar mass.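 Results reflect a 48-hour exposure of cells in 96-well plates to compound at five concentrations. GI50 is the concentration that inhibits growth by half. Definition used: TGI = concentration required for complete inhibition of growth.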

What was measured:
Experiment in all cases: NCI tumour cell line growth inhibition, 48 h
P388 leukemia = test system: P388 leukemia
P388/ADR leukemia = test system: P388/ADR leukemia
SN12K1 renal = test system: SN12K1 renal
SNB-78 CNS = test system: SNB-78 CNS
LXFL 529 NSCLC = test system: LXFL 529 NSCLC
BT-549 breast = test system: BT-549 breast

Row | Structure (SMILES) | TGI (P388 leukemia) [µM] | TGI (P388/ADR leukemia) [µM] | TGI (SN12K1 renal) [µM] | TGI (SNB-78 CNS) [µM] | TGI (LXFL 529 NSCLC) [µM] | TGI (BT-549 breast) | also measured
1 | Cc1c2ccncc2cc2c1[nH]c1ccccc12 | 5.52 | 7.46 | 9.44 | 93.3 | – | – | –
2 | CC(=O)Nc1ccc(C(=O)NN2C(=O)C(Cl)/C2=C/c2ccco2)cc1 (stereo not drawn) | – | – | – | – | > 100 | – | –
3 | CC(=O)c1c(C)nc(SSc2nc(C)c(C(C)=O)c(-c3ccc(Cl)cc3)c2C#N)c(C#N)c1-c1ccc(Cl)cc1 | – | – | – | – | – | 97.2 µg/mL | GI50 (BT-549 breast): 38.4 µg/mL (≈ 63.6 µM)
4 | CC(=O)OCC1OC(n2cc(F)c(=O)[nH]c2=O)C(NC(=O)OCc2ccccc2)C(OC(C)=O)C1OC(C)=O (stereo not drawn) | > 100 | > 100 | > 100 | > 100 | – | – | –
5 | COc1cc(C(C)O)c(S(=O)(=O)CC(C)O)nn1 (stereo not drawn) | – | – | – | – | – | > 100 µM | –
6 | O=C1CC2CC3OC3[C@H]3c4cc5c(cc4C(=O)N1C23)OCO5 (stereo partly drawn) | – | – | – | – | > 100 | – | –
